From publication PMC12386934, “Characteristics and Potential of KSL, KSL-W, and Dadapin-1 Antimicrobial Peptides for Preventing Infections of Orthopedic Prosthetic Devices: Identifying the Most Robust Candidate” (International Journal of Molecular Sciences, 2025)
Where a SMILES comes first, the peptide text is derived from it.

System: MG63 cells co-cultured with S. aureus ATCC 25923
Experiment: Suppression of S. aureus cytotoxicity in co-culture, LDH assay
Assay type: cell-based, human
Settings: MG63 co-cultured with S. aureus ATCC 25923, 24 h, lowest concentration tested
Description: KSL-W was the peptide selected to investigate the efficacy in suppressing the cytotoxicity of S. aureus ATCC 25923 on osteoblast-like MG63 cells. S. aureus ATCC 25923 was thawed from the frozen stock and plated on MHA and incubated at 37 °C for 24 h.
A suspension of MG63 cells was prepared in complete DMEM at a concentration of 5 × 10^4 cells/mL. A total of 100 µL of cell suspension was added to each well of a 96-well cell culture-treated plate (137101, Nunclon Delta Black Microwell, ThermoScientific, Thermo Fisher Scientific, Segrate, Italy). After cell seeding, the plate was incubated for a day at 37 °C under standard culture conditions. […]
Cytotoxicity was assessed by measuring the release of lactate dehydrogenase (LDH) from damaged cells by the LDH Cytotoxicity Assay (ab197004, Abcam, Cambridge, UK), strictly following the instructions of the manufacturer. […] After 10 min shaking, the plate was read in fluorescence (excitation: 535 nm; emission 587 nm) by an Infinite 200 PRO mod. M PLEX multifunction plate reader (Tecan Group Ltd., Männedorf, Switzerland). […]
Data in relative fluorescence units (RFU) from the investigation on KSL-W suppression of S. aureus cytotoxicity were processed as follows. The mean of the duplicate readings from each single treated well was calculated. […]

For `CC(C)[C@H](NC(=O)[C@H](Cc1c[nH]c2ccccc12)NC(=O)[C@H](Cc1ccccc1)NC(=O)[C@@H](NC(=O)[C@@H](NC(=O)[C@H](CCCCN)NC(=O)[C@@H](N)CCCCN)C(C)C)C(C)C)C(=O)N[C@@H](CCCCN)C(=O)N[C@@H](Cc1ccccc1)C(=O)N[C@@H](CCCCN)C(=O)O` [KSL-W] (H-KKVVFWVKFK-OH), which “concentration completely suppressing cytotoxicity due to S. aureus” value is on record?
Its value is 75 µg/mL.
